Data on 16 molecules can be found in PubChem BioAssay (NCI).

Among the test systems are CAKI-1 renal; UACC-257 melanoma; SK-OV-3 ovarian; SR leukemia; SF-268 CNS; TK-10 renal; HCC-2998 colon; NCI-H522 lung; PC-3 prostate; MDA-N.
Test in all cases: inhibition of tumour cell growth, NCI panel, 48 h

Structures are written as SMILES. “And” between values parts separate entries of the source, which are not always exact repeats. Equal entries are not always repeated.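 Protocol summary: plate cells (96-well), add compound at 5 concentrations, incubate 48 h, interpolate endpoints linearly. Here, GI50 denotes the concentration required for 50% inhibition of growth. Definition used: TGI = concentration required for complete inhibition of growth.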 Where a SMILES comes first, the peptide text is derived from it. [ ]: non-standard residue; d: D form. The star is where a group is joined. Boc = CC(C)(C)OC(=O)*

Turning to `O=C(O)C1CCCCN1c1ccccc1[N+](=O)[O-]` (centres undefined), the TGI with CAKI-1 renal, in the test with UACC-257 melanoma, with SK-OV-3 ovarian, in the test with SR leukemia, with SF-268 CNS and in the test on TK-10 renal was more than 100 µM throughout. Besides, the TGI in the test with HCC-2998 colon and with NCI-H522 lung was more than 100 µM throughout.
Regarding `CC(C)Oc1c(-c2ccc(F)cc2)c(O)c2c3c1oc(=O)n3C=CC2C` (centres undefined), the TGI in the test with CAKI-1 renal was 27.5 µM; in the test with UACC-257 melanoma, 26.3 µM; in the test on SK-OV-3 ovarian it was more than 100 µM; in the test on SF-268 CNS, 35.2 µM; in the test with PC-3 prostate, 31.7 µM; in the test on TK-10 renal, 30.7 µM. The TGI was determined as 26.2 µM with HCC-2998 colon, 27.1 µM with MDA-N and 27.2 µM with NCI-H522 lung.
As for `O=C(N/N=C/c1cc(Br)cc(Br)c1[O-])c1ccccc1O.O=C(N/N=C/c1cc(Br)cc(Br)c1[O-])c1ccccc1O.[Co+2]`, the TGI in the test on CAKI-1 renal is 5.93 µM; in the test on UACC-257 melanoma it was 17.6 µM; in the test with SK-OV-3 ovarian it was 5.57 µM; in the test with SR leukemia, 3.29 µM; with SF-268 CNS, 13.9 µM; with TK-10 renal, 14.1 µM. Moreover, the TGI in the test on HCC-2998 colon came out at 10.5 µM; in the test on NCI-H522 lung, 2.49 µM.
As for `Fc1ccc(C(OCCN2CC3CCC(C2)N3CCCc2ccccc2)c2ccc(F)cc2)cc1`, the TGI was 19.1 µM with CAKI-1 renal; 11.9 µM with UACC-257 melanoma; 23.3 µM in the test with SK-OV-3 ovarian; 15.1 µM in the test with SF-268 CNS; 10.4 µM with PC-3 prostate; 24 µM with TK-10 renal. The TGI stood at 8.06 µM in the test with HCC-2998 colon, 11.8 µM in the test on MDA-N and 5.15 µM in the test on NCI-H522 lung.
Consider `CC[C@@]1(O)C(=O)OCc2c1cc1n(c2=O)Cc2c-1nc1ccccc1c2/C=N/NC(=O)c1ccc(N)cc1`, for which the TGI was 5.06 µM with CAKI-1 renal; more than 100 µM in the test with UACC-257 melanoma; more than 100 µM in the test on SK-OV-3 ovarian; more than 100 µM with SF-268 CNS; more than 100 µM in the test on PC-3 prostate; more than 100 µM in the test on TK-10 renal. Moreover, the TGI is more than 69.9 µM with HCC-2998 colon and more than 37.6 µM in the test with MDA-N.
Take `COc1ccc2nc3cccc([N+](=O)[O-])c3c(NCCCO)c2c1`: the TGI is 0.0248 µM in the test on CAKI-1 renal; 0.0166 µM in the test with UACC-257 melanoma; 0.184 µM and 0.563 µM with SK-OV-3 ovarian; 0.0104 µM and 0.103 µM with PC-3 prostate; 0.00662 µM with NCI-H522 lung. For the same molecule, the GI50 with UACC-257 melanoma was 0.00379 µM; in the test with SK-OV-3 ovarian, 0.0375 µM and 0.0452 µM; in the test with SR leukemia, 0.0288 µM; in the test on SF-268 CNS, 0.00101 µM; in the test on TK-10 renal it was 0.00188 µM; in the test on HCC-2998 colon, 0.00186 µM. Also, in the test on NCI-H522 lung, the GI50 is 0.00165 µM.
For `COC(=O)[C@H](Cc1ccc(O)cc1)NC(=O)[C@H](Cc1ccc(O)cc1)NC(=O)OC(C)(C)C` (Boc-Tyr-Tyr-OMe), the TGI in the test with CAKI-1 renal, in the test with UACC-257 melanoma, in the test with SK-OV-3 ovarian, in the test with SF-268 CNS, with PC-3 prostate and with TK-10 renal was more than 100 µM throughout. In addition, the TGI in the test on HCC-2998 colon, with MDA-N and in the test on NCI-H522 lung was more than 100 µM each time.
Take `Cn1c(N)nc(-c2ccc(Cl)cc2)c1SSc1c(-c2ccc(Cl)cc2)nc(N)n1C`: the TGI amounted to 3.52 µM with UACC-257 melanoma; 27.4 µM with SK-OV-3 ovarian; 7.1 µM in the test on SF-268 CNS; 3.38 µM in the test on PC-3 prostate; 3.32 µM in the test on TK-10 renal; 20.7 µM with HCC-2998 colon. Moreover, the TGI was 3.34 µM in the test on MDA-N and 3.62 µM in the test with NCI-H522 lung.
As for `c1ccc2c(c1)OC(N1CCCC1)c1cnc(N3CCOCC3)nc1-2` (centres undefined), the TGI is more than 100 µM in the test with CAKI-1 renal; 74.2 µM with UACC-257 melanoma; more than 100 µM in the test on SK-OV-3 ovarian; more than 100 µM in the test with SR leukemia; more than 100 µM with SF-268 CNS; more than 100 µM with PC-3 prostate. In the test on TK-10 renal, this molecule gave a TGI of more than 100 µM.
Consider `O=C(N/N=C(/COc1ccccc1)N=Cc1cccnc1)c1ccncc1`, for which the TGI with CAKI-1 renal, with UACC-257 melanoma, in the test with SK-OV-3 ovarian, with SF-268 CNS, in the test with PC-3 prostate and with TK-10 renal was more than 100 µM in each case. Also, the TGI in the test on HCC-2998 colon, in the test on MDA-N and in the test with NCI-H522 lung was more than 100 µM throughout.
As to `Cn1cc(-c2csc(-c3cn(C)c4ccccc34)n2)c2ccccc21`, the TGI in the test with CAKI-1 renal is more than 100 µM; in the test with UACC-257 melanoma it was more than 100 µM; in the test on SF-268 CNS it was more than 100 µM; in the test with PC-3 prostate, 89.8 µM; with TK-10 renal, more than 100 µM; in the test on MDA-N, more than 100 µM. In the test on NCI-H522 lung, this molecule displayed a TGI of more than 100 µM.
With `O=c1oc2c(Cl)cc(Cl)cc2cc1C1=CSC2=NCCN12`, the TGI in the test with CAKI-1 renal, in the test on UACC-257 melanoma, with SK-OV-3 ovarian, with SR leukemia, in the test on PC-3 prostate and in the test on TK-10 renal was more than 100 µM throughout. This molecule also registered a TGI in the test with MDA-N of more than 100 µM.
`Cc1ccc(N/C(SCc2ccccc2)=C(\C(Cl)=C(Cl)Cl)[N+](=O)[O-])c(C)c1`: the TGI in the test on CAKI-1 renal was 50.8 µM; in the test with UACC-257 melanoma, more than 100 µM; with SK-OV-3 ovarian it was more than 100 µM; in the test with SF-268 CNS it was 29.8 µM; in the test with PC-3 prostate, more than 100 µM; in the test with HCC-2998 colon, more than 100 µM. The molecule further displayed a TGI with MDA-N of 65.1 µM.
For `CC(C)C[C@H](NC(=O)[C@H](CC(C)C)NC(=O)[C@@H](Cc1c[nH]c2ccccc12)NC(=O)[C@H](Cc1ccccc1)NC(=O)[C@@H](Cc1c[nH]c2ccccc12)NC(=O)[C@H](CCC(N)=O)NC(=O)[C@H](CCC(N)=O)NC(=O)[C@H]1CCCN1C(=O)[C@@H](N)CCCCN)C(N)=O` (H-K[dP]QQ[dW]F[dW]LL-NH2), the TGI in the test on UACC-257 melanoma, in the test on SK-OV-3 ovarian, with SF-268 CNS, in the test with HCC-2998 colon and with NCI-H522 lung was more than 100 µM in each case.
Turning to `CC(=O)CC1=C(OC(C)C)C2(OCCO2)C1O` (centres undefined), the TGI with CAKI-1 renal, in the test with UACC-257 melanoma, in the test with SK-OV-3 ovarian, with SF-268 CNS, in the test on PC-3 prostate and in the test on TK-10 renal was more than 100 µM in each case. In addition, the TGI in the test with MDA-N and with NCI-H522 lung was more than 100 µM throughout.
As to `Cc1n(Cc2ccccc2)nc2sc(N)n[n+]12`, the TGI in the test on CAKI-1 renal, in the test on UACC-257 melanoma, with SK-OV-3 ovarian, with SF-268 CNS, in the test on PC-3 prostate and in the test with TK-10 renal was more than 100 µM each time. Besides, the TGI in the test with MDA-N and with NCI-H522 lung was more than 100 µM throughout.
